According to ChEMBL document CHEMBL1201862, “PubChem BioAssay data set” (2004):
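96-well plates; 48 h exposure; 5 concentrations. Endpoints by linear interpolation between flanking doses. Not reached: highest tested concentration assigned. GI50: concentration for 50% inhibition of growth.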 Active and inactive are the calls of the source. Rule as the data show it: active = GI50 up to about 1.1 µM and inactive = higher.

Legend:
Assay in all cases: DTP human tumour cell line panel, 48 h
IGROV-1 = test system: IGROV-1
A549 = test system: A549
SF-295 = test system: SF-295
DMS-273 = test system: DMS-273
LOX IMVI = test system: LOX IMVI
M14 = test system: M14
HCT-15 = test system: HCT-15
COLO 205 = test system: COLO 205
UACC-62 = test system: UACC-62
SN12C = test system: SN12C
786-0 = test system: 786-0
OVCAR-8 = test system: OVCAR-8
RPMI-8226 = test system: RPMI-8226
UACC-257 = test system: UACC-257
SW-620 = test system: SW-620
U-251 = test system: U-251
OVCAR-3 = test system: OVCAR-3
KM-20L2 = test system: KM-20L2
SNB-19 = test system: SNB-19
MOLT-4 = test system: MOLT-4
HOP-62 = test system: HOP-62
XF498 = test system: XF498
KM12 = test system: KM12
NCI-H226 = test system: NCI-H226
HCT-116 = test system: HCT-116
SR = test system: SR
SNB-75 = test system: SNB-75
SNB-78 = test system: SNB-78
Malme-3M = test system: Malme-3M
EKVX = test system: EKVX
NCI-H522 = test system: NCI-H522
SK-OV-3 = test system: SK-OV-3
SK-MEL-5 = test system: SK-MEL-5
LXFL 529 = test system: LXFL 529
M19-MEL = test system: M19-MEL
OVCAR-4 = test system: OVCAR-4
K562 = test system: K562
SK-MEL-2 = test system: SK-MEL-2
SF-268 = test system: SF-268
SK-MEL-28 = test system: SK-MEL-28
DLD-1 = test system: DLD-1
CCRF-CEM = test system: CCRF-CEM
HT-29 = test system: HT-29
DMS-114 = test system: DMS-114
UO-31 = test system: UO-31
NCI-H23 = test system: NCI-H23
OVCAR-5 = test system: OVCAR-5
HCC 2998 = test system: HCC 2998
SF-539 = test system: SF-539
NCI-H460 = test system: NCI-H460
CAKI-1 = test system: CAKI-1
ACHN = test system: ACHN
RXF 393 = test system: RXF 393
TK-10 = test system: TK-10
HOP-92 = test system: HOP-92
HL-60 = test system: HL-60

## CC1(C)CC(/C=C2/OC(=O)c3ccccc32)=C(C(N)=O)C(=O)O1
IGROV-1
  GI50: > 100 µM (inactive)
A549
  GI50: > 100 µM (inactive)
SF-295
  GI50: > 100 µM (inactive)
DMS-273
  GI50: > 100 µM (inactive)
LOX IMVI
  GI50: > 100 µM (inactive)
M14
  GI50: > 100 µM (inactive)
HCT-15
  GI50: > 100 µM
COLO 205
  GI50: 30.8 µM (inactive)
UACC-62
  GI50: > 100 µM (inactive)
SN12C
  GI50: > 100 µM (inactive)
786-0
  GI50: > 100 µM (inactive)
OVCAR-8
  GI50: > 100 µM (inactive)
RPMI-8226
  GI50: > 100 µM (inactive)
UACC-257
  GI50: > 100 µM (inactive)
SW-620
  GI50: > 100 µM (inactive)
U-251
  GI50: > 100 µM (inactive)
OVCAR-3
  GI50: > 100 µM (inactive)
KM-20L2
  GI50: > 100 µM (inactive)
SNB-19
  GI50: > 100 µM (inactive)
MOLT-4
  GI50: > 100 µM (inactive)
HOP-62
  GI50: > 100 µM (inactive)
XF498
  GI50: > 100 µM (inactive)
KM12
  GI50: > 100 µM (inactive)
NCI-H226
  GI50: > 100 µM (inactive)
HCT-116
  GI50: > 100 µM (inactive)
SR
  GI50: > 100 µM (inactive)
SNB-75
  GI50: > 100 µM (inactive)
SNB-78
  GI50: > 100 µM (inactive)
Malme-3M
  GI50: > 100 µM (inactive)
EKVX
  GI50: > 100 µM (inactive)
NCI-H522
  GI50: > 100 µM (inactive)
SK-OV-3
  GI50: > 100 µM (inactive)
SK-MEL-5
  GI50: > 100 µM (inactive)
LXFL 529
  GI50: > 100 µM (inactive)
M19-MEL
  GI50: > 100 µM (inactive)
OVCAR-4
  GI50: 72.1 µM (inactive)
K562
  GI50: > 100 µM (inactive)
SK-MEL-2
  GI50: > 100 µM (inactive)
SF-268
  GI50: > 100 µM (inactive)
SK-MEL-28
  GI50: > 100 µM (inactive)
DLD-1
  GI50: > 100 µM (inactive)
CCRF-CEM
  GI50: > 100 µM (inactive)
HT-29
  GI50: > 100 µM (inactive)
DMS-114
  GI50: > 100 µM (inactive)
UO-31
  GI50: 83.9 µM (inactive)
NCI-H23
  GI50: > 100 µM (inactive)
OVCAR-5
  GI50: > 100 µM (inactive)
HCC 2998
  GI50: > 100 µM (inactive)
SF-539
  GI50: > 100 µM (inactive)
NCI-H460
  GI50: > 100 µM (inactive)
CAKI-1
  GI50: > 100 µM (inactive)

## NC(=O)CCCC(NCc1c2ccccc2nc2ccccc12)C(=O)O (stereo not drawn)
IGROV-1
  GI50: 48.5 µM (inactive)
A549
  GI50: 56.1 µM (inactive)
ACHN
  GI50: 49.8 µM (inactive)
SF-295
  GI50: 83.4 µM (inactive)
DMS-273
  GI50: 28.2 µM (inactive)
LOX IMVI
  GI50: 30.4 µM (inactive)
RXF 393
  GI50: 51.8 µM (inactive)
M14
  GI50: 42.4 µM (inactive)
HCT-15
  GI50: 36.5 µM
COLO 205
  GI50: 56.4 µM (inactive)
SN12C
  GI50: 41.5 µM (inactive)
786-0
  GI50: 42.7 µM (inactive)
OVCAR-8
  GI50: 42.7 µM (inactive)
RPMI-8226
  GI50: 22.8 µM (inactive)
UACC-257
  GI50: 85.1 µM (inactive)
SW-620
  GI50: 50.9 µM (inactive)
U-251
  GI50: > 100 µM (inactive)
OVCAR-3
  GI50: 37.9 µM (inactive)
KM-20L2
  GI50: 43.5 µM (inactive)
MOLT-4
  GI50: 17.9 µM (inactive)
HOP-62
  GI50: > 100 µM (inactive)
XF498
  GI50: 21 µM (inactive)
KM12
  GI50: 29.2 µM (inactive)
NCI-H226
  GI50: > 100 µM (inactive)
TK-10
  GI50: 55 µM (inactive)
HCT-116
  GI50: > 10 µM (inactive)
SR
  GI50: 25.9 µM (inactive)
SNB-75
  GI50: 58.2 µM (inactive)
Malme-3M
  GI50: 77.1 µM (inactive)
EKVX
  GI50: 56.6 µM (inactive)
HOP-92
  GI50: 27.5 µM (inactive)
NCI-H522
  GI50: 22.6 µM (inactive)
HL-60
  GI50: 20.5 µM (inactive)
SK-OV-3
  GI50: > 100 µM (inactive)
SK-MEL-5
  GI50: 94.6 µM (inactive)
LXFL 529
  GI50: 39.9 µM (inactive)
M19-MEL
  GI50: 45.2 µM (inactive)
OVCAR-4
  GI50: 11.1 µM (inactive)
K562
  GI50: 26.6 µM (inactive)
SK-MEL-2
  GI50: 90.6 µM (inactive)
SF-268
  GI50: 41.6 µM (inactive)
SK-MEL-28
  GI50: > 100 µM (inactive)
DLD-1
  GI50: 35.4 µM (inactive)
CCRF-CEM
  GI50: 22.2 µM (inactive)
HT-29
  GI50: 36.2 µM (inactive)
DMS-114
  GI50: 37.2 µM (inactive)
NCI-H23
  GI50: 53.1 µM (inactive)
OVCAR-5
  GI50: > 100 µM (inactive)
HCC 2998
  GI50: 50.9 µM (inactive)
SF-539
  GI50: 32.7 µM (inactive)
NCI-H460
  GI50: 39.5 µM (inactive)
CAKI-1
  GI50: 27.5 µM (inactive)
